On series [1], the source says: It is also possible to combine several buffers in combination (buffer mixtures) in particular so as to optimize the buffering capacity ranges and the choice of the chelates and of the biovectors, it being specified that not all chelates necessarily have the same complexation, depending on the buffer under consideration.
Another series addresses CXCR4 (Homo sapiens, UniProt P61073). Description: IC50 of cyclic peptides for targeting CXCR4. It counts as binding. Particulars: peptide biovectors for targeting CXCR4.

Like-named read-outs stand apart in the source and are kept apart here. Where a SMILES comes first, the peptide text is derived from it. [ ]: non-standard residue; d: D form.

CXCR4, sequence (P61073 whole entry, species assumed): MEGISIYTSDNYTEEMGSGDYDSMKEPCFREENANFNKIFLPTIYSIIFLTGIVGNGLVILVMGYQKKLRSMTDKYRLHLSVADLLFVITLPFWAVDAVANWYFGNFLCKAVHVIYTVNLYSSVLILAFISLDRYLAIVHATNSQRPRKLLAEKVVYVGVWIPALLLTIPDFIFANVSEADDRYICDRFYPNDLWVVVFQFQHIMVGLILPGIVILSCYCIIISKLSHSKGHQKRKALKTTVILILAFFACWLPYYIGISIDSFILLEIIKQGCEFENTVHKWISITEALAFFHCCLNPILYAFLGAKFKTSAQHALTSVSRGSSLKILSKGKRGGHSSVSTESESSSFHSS

Turning to `O=C(O)O` [carbonate], the “buffering capacity (pKa value +/-1)” value in series [1] (pH range) was 5.35-11.33.
Regarding `O=C(O)C(O)C(O)C(=O)O` (centres unmarked) [tartrate], the “buffering capacity (pKa value +/-1)” value in series [1] was 2.04-5.37.
Still for that read-out and setting: with phosphate the figure was 1.12-13.67.
The IC50 is the concentration that gives 50% inhibition. In turn, `N=C(N)NCCC[C@@H]1NC(=O)[C@H](CCCNC(=N)N)NC(=O)[C@@H](Cc2ccc(O)cc2)NC(=O)CNC(=O)[C@H](Cc2nc3ccccc3s2)NC1=O` [Bth] gave an IC50 on CXCR4 of 18 nM.
Still for that read-out and setting: the value for `N=C(N)NCCC[C@@H]1NC(=O)[C@H](CCCNC(=N)N)NC(=O)[C@@H](Cc2ccc(O)cc2)NC(=O)CNC(=O)[C@H](Cc2c[nH]c3ccccc23)NC1=O` [Trp] (cyclo([dY]RRWG)) was 13 nM.

For the origin of these results see patent publication US20120009124A1, “USE OF BUFFERS FOR RADIONUCLIDE COMPLEXATION” (GUERBET, priority 2009, published 2012).
